Assay results reported in patent US5811452A, “Taxoid reversal agents for drug-resistance in cancer chemotherapy and pharmaceutical compositions thereof” (The Research Foundation of State University of New York, priority 1997, dated 1998).
pIC50: −log10 of the molar value. Read-outs that look alike come from different tables or passages of the source.

What was measured:
MCF7 (mammary carcinoma) = test: Cytotoxicity evaluation (cell growth inhibition, SRB, 72 h); type: cell-based; details: read-out: IC50, growth of human tumor cell line MCF7 (breast)
Description: (§1) Taxoids, thus synthesized, were evaluated for their cytotoxicity against human tumor cell line, A2780 (ovarian carcinoma), A2780-DX5 (ovarian carcinoma resistant to doxorubicin), MCF7 (mammary carcinoma) or MCF7-R (mammary carcinoma cells resistant to doxorubicin), after 72 hours drug exposure according to the methods of Skehon, et al., "J. Nat. Cancer Inst. 82, 1107, 1990". […] Lower numbers indicate higher potency. The data represent the means values of at least three separate experiments. Lower numbers indicate stronger cytotoxicity.
(§2) Assessment of cytotoxicity, i.e., cell growth inhibition, was determined according to the methods of Skehan, et al. as discussed in J. Nat. Cancer Inst. 82, 1107, 1990. Briefly, cells were plated between 400 and 1200 cells/well in 96 well plates and incubated at 37° C. for 15-18 h prior to drug addition to allow attachment of cells. Compounds tested were solubilized in 100% DMSO and further diluted in RPMI-1640 containing 10 mM HEPES. Each cell line was treated with 10 concentrations of compounds (5 log range). After a 72 h incubation, […] of ice-cold 50% TCA was added to each well and incubated for 1 h at 4° C. Plates were then washed 5 times with tap water to remove TCA, low-molecular-weight metabolites and serum proteins. Sulforhodamine B (SRB) (0.4%, […]) was added to each well. Following a 5 minute incubation at room temperature, plates were rinsed 5 times with 0.1% acetic acid and air dried. Bound dye was solubilized with 10 mM Tris Base (pH 10.5) for 5 min on a gyratory shaker. Optical density was measured at 570 nm.

[1] = test system: MCF7-R (mammary carcinoma cells resistant to doxorubicin); test: as above; type: cell-based; details: read-out: IC50, growth of human tumor cell line MCF7-R (breast)
Description: as §1, §2

[2] = test system: drug-resistant breast cancer cells MCF7-R; test: MDR reversal: cytostatic activity in combination with paclitaxel or doxorubicin; type: cell-based, human; details: for % IC50 reduction (taxoid + Paclitaxel): taxoid 1 μM + paclitaxel
Description: ^a Treatment consists of concurrent exposure of MCF7R cells to
reversing agent (1 μM) for 72 h in vitro.

[3] = test system: A2780 (ovarian carcinoma); test: Cytotoxicity evaluation (cell growth inhibition, SRB, 72 h); type: cell-based; details: read-out: IC50, growth of human tumor cell line A2780 (ovarian)
Description: as §1, §2

[4] = test system: A2780-DX5 (ovarian carcinoma resistant to doxorubicin); test: as above; type: cell-based; details: read-out: IC50, growth of human tumor cell line A2780-DX5 (ovarian)
Description: as §1, §2

microtubules = details: cited from earlier work
P-glycoprotein mdr 1a = details: Taxol-resistant T1 cells; cited from earlier work
P-glycoprotein mdr 1b = details: cited from earlier work
J7 (parent) cells = details: cited from earlier work
[5] = 72 h exposure, doxorubicin-resistant
[6] = read-out: IC50 (taxoid + Paclitaxel), paclitaxel in presence of taxoid reversing agent (1 μM), 72 h
[7] = 72 h exposure, mean of at least three experiments
[8] = Homo sapiens, MCF7R, without reversing agent, 72 h, read-out: IC50 of anticancer drug alone
[9] = Homo sapiens, A2780, 72 h exposure, mean of at least three experiments
[10] = Homo sapiens, 72 h exposure, doxorubicin-resistant
[11] = Homo sapiens, MCF7, 72 h exposure
[12] = Homo sapiens, MCF7R, 72 h exposure, doxorubicin-resistant

| % IC50 reduction (taxoid + Paclitaxel) ([2]; 72 h) [%] | Compound | pIC50 (MCF7 (mammary carcinoma); 72 h exposure) | pIC50 [1, 5] | pIC50 (MCF7 (mammary carcinoma); [11]) | pIC50 [1, 12] | other results |
| --- | --- | --- | --- | --- | --- | --- |
| 95 | CC(=O)O[C@@]12CO[C@@H]1C[C@H](O)[C@@]1(C)C(=O)[C@H](OC(=O)/C=C/c3ccc(C(=O)c4ccccc4)cc3)C3=C(C)[C@@H](O)C[C@@](O)([C@@H](OC(=O)c4ccccc4)[C@H]21)C3(C)C [SB-RA-4001, 10-[(4-Benzoyl)cinnamoyl]-10-deacetylbaccatin III] | – | – | 5.07 | < 5.00 | pIC50 [3, 9]: 5.10; pIC50 [4, 10]: 5.00 |
| 97.5 | CC(=O)O[C@H]1C(=O)[C@]2(C)[C@@H](OC(=O)c3ccc4ccccc4c3)C[C@H]3OC[C@@]3(OC(C)=O)[C@H]2[C@H](OC(=O)c2ccccc2)[C@]2(O)C[C@H](O)C(C)=C1C2(C)C [SB-RA-30001, 7-(Naphthalene-2-carbonyl)baccatin III] | – | – | 5.28 | 4.96 | – |
| 96 | CC(=O)O[C@H]1C(=O)[C@]2(C)[C@@H](OC(=O)/C=C/c3ccc4ccccc4c3)C[C@H]3OC[C@@]3(OC(C)=O)[C@H]2[C@H](OC(=O)c2ccccc2)[C@]2(O)C[C@H](O)C(C)=C1C2(C)C [SB-RA-30011, 7-[3-(2-naphthyl)-2-propenoyl]baccatin III] | – | – | 5.33 | 5.10 | pIC50 [3, 9]: 5.20; pIC50 [4, 10]: 5.17; enhancement of the tumor growth inhibitory activity of doxorubicin ([2]; 1 μM taxoid): 92%; % IC50 reduction (taxoid + Doxorubicin) ([2]; taxoid 1 μM + doxorubicin, 72 h): 92% |
| 96 | CC(=O)O[C@H]1C(=O)[C@]2(C)[C@@H](OC(=O)CCc3ccc4ccccc4c3)C[C@H]3OC[C@@]3(OC(C)=O)[C@H]2[C@H](OC(=O)c2ccccc2)[C@]2(O)C[C@H](O)C(C)=C1C2(C)C [SB-RA-30021, 7-[3-(2-Naphthyl)propanoyl]baccatin III] | – | – | 5.31 | 5.30 | pIC50 [3, 9]: 5.24; pIC50 [4, 10]: 5.28 |
| 99.8 | CC(=O)O[C@H]1C(=O)[C@]2(C)[C@@H](OC(=O)/C=C/c3ccc(C(=O)c4ccccc4)cc3)C[C@H]3OC[C@@]3(OC(C)=O)[C@H]2[C@H](OC(=O)c2ccccc2)[C@]2(O)C[C@H](O)C(C)=C1C2(C)C [SB-RA-31011, 7-[4-Benzoylcinnamoyl]baccatin III] | – | – | 4.96 | < 5.00 | – |
| 99.7 | CC(=O)O[C@H]1C(=O)[C@]2(C)[C@@H](OC(=O)/C=C/c3ccc(C(=O)c4ccccc4)cc3)C[C@H]3OC[C@@]3(OC(C)=O)[C@H]2[C@H](OC(=O)c2ccccc2)[C@]2(O)C[C@H](OC(C)=O)C(C)=C1C2(C)C [SB-RA-31012] | – | – | < 5.00 | < 5.00 | – |

More lines, now with the values behind:

| Compound | % IC50 reduction (taxoid + Paclitaxel) ([2]; 72 h) [%] | pIC50 (MCF7 (mammary carcinoma); 72 h exposure) | pIC50 [1, 5] | pIC50 (MCF7 (mammary carcinoma); [11]) | pIC50 [1, 12] | other results |
| --- | --- | --- | --- | --- | --- | --- |
| 7,10-Bis[3-(4-benzoylphenyl)prop-2-enoyl]-10-deacetylbaccatin III [SB-RA-4102] | 99.7 | < 5.00 | < 5.00 | – | – | pIC50 [2, 6]: 8.57 |
| 7-[3-(2-Naphtyl)propanoyl]-13-acetylbaccatin III [SB-RA-30012] | 99.3 | < 5.00 | < 5.00 | – | – | pIC50 [2, 6]: 8.24 |
| 13-(4-Benzoylcinnamoyl)-7,10-bis(2,2,2-trichloroethoxycarbonyl)baccatin III [SB-RA-110] | – | < 5.00 | < 5.00 | – | – | pIC50 [3, 7]: < 5.00; pIC50 [4, 5]: < 5.00 |
| COc1cccc2c1C(=O)c1c(O)c3c(c(O)c1C2=O)C[C@@](O)(C(=O)CO)C[C@@H]3O[C@H]1C[C@H](N)[C@H](O)[C@H](C)O1 [Doxorubicin, reference compound] | – | – | – | – | – | pIC50 ([3]; Homo sapiens, A2780, 72 h): 8.30; pIC50 ([4]; Homo sapiens, 72 h): 6.45; pIC50 (MCF7 (mammary carcinoma); Homo sapiens, MCF7, 72 h): 7.77; pIC50 ([1]; Homo sapiens, MCF7R, 72 h): 5.72; pIC50 [2, 8]: 5.72 |
| CC(=O)O[C@H]1C(=O)[C@@]2(C)[C@H]([C@H](OC(=O)c3ccccc3)[C@]3(O)C[C@H](OC(=O)[C@H](O)[C@@H](NC(=O)c4ccccc4)c4ccccc4)C(C)=C1C3(C)C)[C@]1(OC(C)=O)CO[C@@H]1C[C@@H]2O [Paclitaxel, reference compound] | – | – | – | – | – | pIC50 (MCF7 (mammary carcinoma); Homo sapiens, MCF7, 72 h): 8.77; pIC50 ([1]; Homo sapiens, MCF7R, 72 h): 6.07; pIC50 ([2]; Homo sapiens, MCF7R, read-out: IC50 of paclitaxel, taxoid at 1 or 3 μM (from 860 to 42~1.6)): 6.07; pIC50 [2, 8]: 6.07 |
| CC(=O)O[C@@]12CO[C@@H]1C[C@H](O)[C@@]1(C)C(=O)[C@H](O)C3=C(C)[C@@H](OC(=O)/C=C/c4ccc5ccccc5c4)C[C@@](O)([C@@H](OC(=O)c4ccccc4)[C@H]21)C3(C)C [SB-RA-2001, 13-[3-(2-Naphthyl)prop-2-enoyl]-10-deacetylbaccatin III] | – | 5.70 | 5.30 | – | – | pIC50 [3, 7]: 5.59; pIC50 [4, 5]: 5.42 |
| CC(=O)O[C@H]1C(=O)[C@@]2(C)[C@H]([C@H](OC(=O)c3ccccc3)[C@]3(O)C[C@H](OC(=O)[C@H](O)[C@@H](NC(=O)CCc4ccc(C(=O)c5ccccc5)cc4)c4ccccc4)C(C)=C1C3(C)C)[C@]1(OC(C)=O)CO[C@@H]1C[C@@H]2O [SB-T-5101] | – | – | – | – | – | binding to microtubules (microtubules): binds to microtubules as expected; binding to P-glycoprotein mdr 1a (P-glycoprotein mdr 1a): binds to both mdr 1a (major) and mdr 1b (minor) in T1 cells; binding to P-glycoprotein mdr 1b (P-glycoprotein mdr 1b; Taxol-resistant T1 cells): binds to both mdr 1a (major) and mdr 1b (minor) in T1 cells; binding to P-glycoprotein mdr 1b (P-glycoprotein mdr 1b; vinblastine-resistant V1 cells): only binds to mdr 1b in V1 cells; photoaffinity labeling of non-drug resistant cells (J7 (parent) cells): no photoaffinity labeling is observed |
